molecular target: h-Sortilin (Homo sapiens (Human), UniProt Q99523); assay: Neurotensin scintillation proximity assay (SORTILIN Binding Assay [3H]NT SPA); conditions: displacement of 5 nM [3H]-neurotensin from 150 nM 6his-Sortilin; average of at least 2 determinations
Protocol: The exemplified compounds of the invention were tested in a Neurotensin (NTS) scintillation proximity assay (SPA). NTS, which is a 13 amino acid neuropeptide, is a sortilin ligand. The IC50 is a measure of the amount of the compound required to inhibit the binding of NTS to sortilin by 50%. The skilled person will recognise that the lower the IC50 value, the less of the compound needed to achieve the desired effect, and as a result, the chances of undesirable off-target effects are reduced.
Compound affinity was determined by measuring the displacement of [^3H]-neurotensin binding to h-Sortilin in SPA format. Total volume of 40 μl in 50 mM HEPES pH 7.4 assay buffer containing 100 mM NaCl, 2.0 mM CaCl2, 0.1% BSA and 0.1% Tween-20. Compound pre-incubation for 30 minutes at room temperature with 150 nM of 6his-Sortilin before 5 nM [3H]-Neurotensin and Ni chelate imaging beads (Perkin Elmer) were added, after 6 hours the plate was read on a ViewLux with 360 s exposure time. Dose-response evaluation of compounds was performed with 8 concentrations of drugs (covering 3 decades). IC50 values were calculated by nonlinear regression using the sigmoid concentration-response (variable slope) using CDD Vault software. All values reported are average of at least 2 determinations.

Sequence of h-Sortilin (Q99523 78-831): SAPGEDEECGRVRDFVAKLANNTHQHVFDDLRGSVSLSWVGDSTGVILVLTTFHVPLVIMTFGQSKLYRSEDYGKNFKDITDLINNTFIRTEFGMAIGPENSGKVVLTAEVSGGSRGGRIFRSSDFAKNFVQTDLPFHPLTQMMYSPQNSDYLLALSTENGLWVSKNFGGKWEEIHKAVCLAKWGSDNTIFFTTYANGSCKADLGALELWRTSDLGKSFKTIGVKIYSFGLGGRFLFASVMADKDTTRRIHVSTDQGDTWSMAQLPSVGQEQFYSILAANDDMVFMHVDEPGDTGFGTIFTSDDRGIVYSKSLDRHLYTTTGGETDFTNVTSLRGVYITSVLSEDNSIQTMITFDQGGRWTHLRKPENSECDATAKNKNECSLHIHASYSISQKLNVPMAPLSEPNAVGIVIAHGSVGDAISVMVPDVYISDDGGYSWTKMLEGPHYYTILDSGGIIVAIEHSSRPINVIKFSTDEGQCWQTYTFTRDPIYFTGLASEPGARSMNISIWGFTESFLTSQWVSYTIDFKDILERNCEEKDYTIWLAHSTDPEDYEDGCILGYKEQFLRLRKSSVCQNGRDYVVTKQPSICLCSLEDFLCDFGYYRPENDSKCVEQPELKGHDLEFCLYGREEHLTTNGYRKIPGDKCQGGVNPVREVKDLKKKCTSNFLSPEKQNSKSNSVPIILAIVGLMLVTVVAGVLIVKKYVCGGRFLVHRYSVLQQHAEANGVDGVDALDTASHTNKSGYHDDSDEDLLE

SMILES | IC50 [nM]
CN(Cc1ccccc1)C(=O)N[C@@H](CCC(C)(C)C)C(=O)O [Example 2, (2S)-2-{[benzyl(methyl)carbamoyl]amino}-5,5-dimethylhexanoic acid] | 430
CC(C)(C)CC[C@H](NC(=O)N1CCOCC1)C(=O)O [Example 4, (2S)-5,5-dimethyl-2-[(morpholine-4-carbonyl)amino]hexanoic acid] | 260
CC(C)(C)CC[C@H](NC(=O)N1CCCOCC1)C(=O)O [Example 5, (2S)-5,5-dimethyl-2-[(1,4-oxazepane-4-carbonyl)amino]hexanoic acid] | 370
CC(C)(C)CC[C@H](NC(=O)OCc1ccccc1)C(=O)O [Example 3, (2S)-2-{[(benzyloxy)carbonyl]amino}-5,5-dimethylhexanoic acid] | 560
CC(C)(C)CC[C@H](NC(=O)NCc1ccccc1)C(=O)O [Example 1, (2S)-2-[(benzylcarbamoyl)amino]-5,5-dimethylhexanoic acid] | 380
